Measurements reported in patent US20160151410A1, “CLEARANCE OF BIOACTIVE LIPIDS FROM MEMBRANE STRUCTURES BY CYCLODEXTRINS” (The Trustees of Columbia University in the City of New York, priority 2013, published 2016).
Entries after “also recorded” stand apart in the source; their conditions may differ.

Assays:
[1] = test system: lysophospholipids from LIPC-digested human LDL; assay: Extraction of lysophospholipids from LIPC-digested LDL by cyclodextrins, read out as complement C3 fixation; type: biochemical; conditions: for complement activation after cyclodextrin extraction of LIPC-digested LDL: 20 mM cyclodextrin
Description: Immobilized LDL was digested with LIPC, then 20 mM of different cyclodextrins (A), or 0-20 mM HPαCD (B), or 20 mM HPαCD (C), or 2 mM of HPαCD in combination with 0.5 mg/ml of native LDL (D) are used for 20 hours extraction (A, B, D), or 0-20 hours extraction (C). Complement activation with diluted native human serum was then performed. MβCD—methyl-β-cyclodextrin; HPβCD—hydroxypropyl-β-cyclodextrin.
(§1) 96-well NUNC MaxiSorp plates were coated with 40 μl of human LDL, VLDL, or NaOH-hydrolyzed LDL, all at 200 μg/ml in PBS, at 4° C. overnight then 37° C. for 1 hour, and remaining binding sites were blocked with 3% BSA in PBS at 37° C. for 1 hour. The wells were washed and then incubated with 40 μl of LIPC or CEase in PBS containing 2% BSA at 37° C. for 1 or 2 hours as indicated in Results section, and the degradation reaction was stopped by washing the plate with PBS. For complement system activation, the resulted plate was incubated with 20 μl of 1:1 diluted human sera at 21° C. for 30 minutes. The diluent for serum dilution was PBS containing calcium and magnesium, and human sera that were utilized in our study were native serum, C1q-depleted serum, factor B-depleted serum, native serum with addition of 10 mM of MgCl2 and 20 mM EGTA (Mg-EGTA), and native serum with addition of 10 mM EDTA.
(§2) After thorough washing of the plate, C3 fixation and final membrane attack complex formation on the plate were determined with anti-human C3d antibody and anti-human C5b-9 antibody, in combination with HRP-conjugated secondary antibody, respectively. The monoclonal anti-human C3d antibody is reactive to all C3d-containing fragments of C3, but not with C3 itself, so it detects C3 fixation on the plate and not C3 absorption. The final peroxidase activity was monitored at 450 nm with 3,3′,5,5′-tetramethyl-benzidine and hydrogen peroxide as substrates after 10 or 15 minutes reaction at room temperature.
We tested several cyclodextrins for the ability to extract lysophospholipids from LIPC-digested human LDL. Since lysophospholipid level in lipoprotein is directly related to complement C3 fixation, we use C3 fixation as an indicative parameter for levels of lysophospholipids in lipoprotein. […] We also tested HPαCD upon shuttling of lysophospholipids between LIPC-digested LDL and native LDL, a biological feature of lipid transport (FIG. 4D).

[2] = test system: ARPE-19 cells; type: cell-based
Description: (A, B) 40-50% confluent ARPE-19 cells in 96-well plate were cultured with serum-free medium for 24 hours, then incubated with 0.1 ml of serum-free medium containing 0-100 μM 1-Palmitoyl-sn-glycero-3-phosphocholine (LPC) for 22 hours. Cell morphology of control cells and 100 μM LPC treated cells was observed under a microscope, as shown in (B). The cells were then incubated with 0.15 ml of serum-free medium containing 0.5 mg/ml MTT at 37° C. for 2 hours. Formation of formazan is detected at 540 nm with 0.1 ml of DMSO as solvent (A). (C) As performed in (A), but with 100 μM LPC pre-incubated for 1 hour with 0-20 mM HPαCD, significant protection of HPαCD on ARPE-19 cells was observed when used at 0.5 mM or greater in medium (marked with *).
Human retinal pigment epithelial cell line, ARPE-19, was purchased from ATCC (Manassas, Va.). The cells were cultured in Dulbecco's modified Eagle's medium supplemented with 10% of heat-inactivated fetal bovine serum (FBS), 100 IU/ml of penicillin, and […] of streptomycin (all cell culture products from Invitrogen-Gibco, Rockville, Md.). Cells were maintained at 37° C. in a 5% CO2 incubator with medium change every 3-4 days. […]
Cell viability was determined with the colorimetric MTT metabolic activity assay. […] After removal of cell culture medium, formation of formazan from MTT reduction was detected at 540 nm with 0.1 ml of DMSO as solvent.

[3] = test system: classical pathway of complement system; assay: Complement activation (C3 fixation) by LIPC- or CEase-digested immobilized LDL with human serum; type: biochemical
Description: 96-well MaxiSorp plates were coated with fresh human LDL (A, D, E), VLDL (B), or NaOH-hydrolyzed LDL (C). After blocking with BSA, the plates, except (C), were digested with LIPC. To test complement activation, the plates were incubated with diluted native human serum (N), C1q-depleted human serum (Cd), factor B-depleted human serum (Bd), or human serum containing Mg-EGTA (ME). C3 fixation on the plate was detected with a monoclonal anti-C3d antibody followed by HRP-conjugated secondary antibody. Specific conditions for LIPC digestion and HRP-catalyzed color development of each experiment were outlined as following: LIPC was used at 10 μg/ml for (A, B, E), 0-50 μg/ml for (D), and no LIPC for (C). LIPC degradation was 1 hour for (D), 2 hours for (A, B), and 0-2 hours for (E). Color development was 15 minutes for (A, B, C, E) and 10 minutes for (D). For NaOH hydrolysis of LDL, 1.35 mg/ml of LDL was incubated in 0.15M NaOH solution at 25° C. for up to 60 minutes. Aliquots were taken out and neutralized with 0.15M HCl at 1, 10, 20, 60 minutes.
LIPC and CEase, both having 8 μUnits of phospholipase A1 activity but having 3 μUnits and 8125 μUnits of triglyceride hydrolase activity respectively, were used for 2 hours digestion of immobilized LDL. Complement activation with diluted native human serum is then determined as in FIG. 1. The HRP-catalyzed color development was 15 minutes.
Human LDL coating and 1 hour (C) or 2 hours (A, B) LIPC digestion was performed as described in FIG. 1. (A) For complement activation, 0-50 μM of phosphocholine was added into diluted native human serum. […]
as §2, with “The monoclonal anti-human C3d antibody is reactive to all C3d-containing fragments of C3, but not with C3 itself, so it detects C3 fixation on the plate and not C3 absorption.” left out

[4] = test system: rabbit cornea after alkali burn; assay: Rabbit corneal neovascularization by alkali burn; type: in vivo
Description: Alkali burn on central cornea was performed with 6 mm filter paper disc wetted with 8 μl of 1M NaOH. Cornea were then extensively washed with PBS, followed by treatment with control formula (left eye) and cyclodextrin formula (right eye) as described in Materials and Methods. The bottom two pictures are fluorescein angiograms showing the leaking new vessels in the cornea. White arrows in pictures show corneal neovascularization.
3 New Zealand white rabbits, aged 4-5 months and weighing 1.8-2.6 kg, were obtained from Charles River Laboratories (Wilmington, Mass.) and acclimatized for several weeks before the experiments started. All of the rabbits were anesthetized using ketamine (42 mg/kg) and xylazine (7 mg/kg) intramuscularly. 0.5% proparacaine hydrochloride (Akorn, Inc. Lake Forest, Ill.) was applied topically. Alkali burn on central cornea of both eyes was performed with 6 mm round disc of Whatman No. 1 filter paper wetted with […] of 1M NaOH for exactly 1 minute, filter paper was then removed and the cornea was extensively irrigated with 200 ml of PBS for 10 minutes. Left eye and right eye were then treated with control formula (6 mg/ml of POPC liposome in PBS) and cyclodextrin formula (50 mM HPαCD and 16.7 mM HPβCD in control formula), respectively. […]

[5] = test system: C5b-9; assay: Terminal complement complex (C5b-9) formation by LIPC-digested LDL; type: biochemical; conditions: human serum with additional CRP
Description: Immobilized LDL was digested by LIPC and then incubated with human serum with or without additional CRP. C3 fixation (A) and C5b-9 formation (B) was determined by specific primary and HRP-conjugated secondary antibodies.
as §1, with “The diluent for serum dilution was PBS containing calcium and magnesium, and human sera that were utilized in our study were native serum, C1q-depleted serum, factor B-depleted serum, native serum with addition of 10 mM of MgCl2 and 20 mM EGTA (Mg-EGTA), and native serum with addition of 10 mM EDTA.” left out
as §2, with “The monoclonal anti-human C3d antibody is reactive to all C3d-containing fragments of C3, but not with C3 itself, so it detects C3 fixation on the plate and not C3 absorption.” left out

Molecule: OC[C@H]1O[C@@H]2O[C@H]3[C@H](O)[C@@H](O)[C@@H](O[C@H]4[C@H](O)[C@@H](O)[C@@H](O[C@H]5[C@H](O)[C@@H](O)[C@@H](O[C@H]6[C@H](O)[C@@H](O)[C@@H](O[C@H]7[C@H](O)[C@@H](O)[C@@H](O[C@H]8[C@H](O)[C@@H](O)[C@@H](O[C@H]1[C@H](O)[C@H]2O)O[C@@H]8CO)O[C@@H]7CO)O[C@@H]6CO)O[C@@H]5CO)O[C@@H]4CO)O[C@@H]3CO [β-cyclodextrin, reference compound]
- complement activation after cyclodextrin extraction of LIPC-digested LDL ([1]; 20 hours extraction): much weaker effects

Molecule: CCCCCCCCCCCCCCCC(=O)OC[C@@H](O)COP(=O)([O-])OCC[N+](C)(C)C [1-palmitoyl-sn-glycero-3-phosphocholine, reference compound]
- concentration inducing ARPE-19 cell death ([2]; serum-free medium, 22 hours, 0-100 μM tested): ≥ 20 μM

Molecule: 2-hydroxypropyl-β-cyclodextrin [reference compound]
- complement activation after cyclodextrin extraction of LIPC-digested LDL ([1]; 20 hours extraction): much weaker effects

Molecule: C[N+](C)(C)CCOP(=O)([O-])O [phosphocholine, reference compound]
- complement activation by LIPC-digested LDL, phosphocholine added into serum ([3]; 0-50 μM phosphocholine in diluted native human serum): significantly decreases complement activation

Molecule: methyl-β-cyclodextrin [reference compound]
- complement activation after cyclodextrin extraction of LIPC-digested LDL ([1]; 20 hours extraction): much weaker effects

Molecule: 2-hydroxypropyl-α-cyclodextrin [HPαCD]
- extraction of complement-activating lysophospholipids, dose and time dependence ([1]; 0-20 mM HPαCD for 20 hours, 20 mM HPαCD for 0-20 hours): dose- and time-dependent
- extraction of lysophospholipids, HPαCD alone at low level ([1]; 2 mM HPαCD alone, 20 hours extraction): cannot extract much lysophospholipids
- extraction of lysophospholipids, HPαCD in combination with native LDL ([1]; 2 mM HPαCD with 0.5 mg/ml native LDL, 20 hours extraction): extract the most lysophospholipids
- complement activation after cyclodextrin extraction of LIPC-digested LDL ([1]; 20 hours extraction): significantly less complement activation; also recorded: Significant extraction of lysophospholipids
- neovascularization area and vessel length ([4]; FIG. 7 representative result): reduced dramatically
- inhibition of corneal neovascularization ([4]; topical after alkali burn, right eye vs control formula left eye, three rabbits): dramatic effect of HPαCD extraction on inhibition of corneal neovascularization
- HPαCD concentration giving significant protection of ARPE-19 cells ([2]; 100 μM LPC pre-incubated 1 hour with 0-20 mM HPαCD): ≥ 0.5 mM

Molecule: OC[C@H]1O[C@@H]2O[C@H]3[C@H](O)[C@@H](O)[C@@H](O[C@H]4[C@H](O)[C@@H](O)[C@@H](O[C@H]5[C@H](O)[C@@H](O)[C@@H](O[C@H]6[C@H](O)[C@@H](O)[C@@H](O[C@H]7[C@H](O)[C@@H](O)[C@@H](O[C@H]1[C@H](O)[C@H]2O)O[C@@H]7CO)O[C@@H]6CO)O[C@@H]5CO)O[C@@H]4CO)O[C@@H]3CO [α-cyclodextrin, reference compound]
- complement activation after cyclodextrin extraction of LIPC-digested LDL ([1]; 20 hours extraction): much weaker effects

B1: CRP: purified human CRP, binding protein of lysophosphatidylcholine (protein, UniProt P02741 19-224, looked up)
C-reactive protein: QTDMSRKAFVFPKESDTSYVSLKAPLTKPLKAFTVCLHFYTELSSTRGYSIFSYATKRQDNEILIFWSKDIGYSFTVGGSEILFEVPEVTVAPVHICTSWESASGIVEFWVDGKPRVRKSLKKGYTVGAEASIILGQEQDSFGGNFEGSQSLVGDIGNVNMWDFVLSPDEINTIYLGGPFSPNVLNWRALKYEVQGEVFTKPQLWP
- C3 fixation by LIPC-digested LDL with additional CRP ([3]; native human serum supplemented with purified human CRP): dose-dependently enhances its activity on complement activation; also recorded: enhances C3 fixation
- terminal complement complex formation with additional CRP [5]: blocks the terminal complement complex formation
